Patent publication US20260200946A1, “KRAS(G12V) INHIBITORS” (Ranok Therapeutics (Hangzhou) Co. Ltd., priority 2022, published 2026)

What follows are molecules tested on NCIH727 cells (assay: Cancer cell line proliferation (CellTiter-Glo), NCI-H727). Conditions: Homo sapiens, 72 h, NCIH727 lung carcinoid, heterozygous G12V.
Type: cell-based
Procedure: Cell lines were cultured essentially according to ATCC recommendations.
SW620 and NCIH727 cells were plated in 384-well tissue culture plates at 1,000 cells/well and incubated at 37° C./5% CO2 for 72 hr in 40 μl of media. […] Each cell line was then treated with test compounds at various concentrations with a final concentration of 0.5% DMSO/well, and then incubated at 37° C./5% CO2 for 72 hr. 40 μl of CellTiter-Glo® Reagent (Promega Corporation, Madison, WI) was added to each well and processed according manufacturer's protocol. Results were analyzed and IC50 values were calculated in GraphPad 8.0 software.

SMILES | EC50 [nM]
C#Cc1c(F)ccc2cc(O)cc(-c3ncc4c(N5CC6CCC(C5)N6C(=O)Nc5ccn[nH]5)nc(OCC5(CN6CCC(F)CC6)CC5)nc4c3F)c12 [Example 10] | > 1000
C#Cc1c(F)ccc2cc(O)cc(-c3ncc4c(N5CC6CCC(C5)N6C(=O)CC(C)C)nc(OCC5(CN6CCC(F)CC6)CC5)nc4c3F)c12 [Example 4] | > 1000
C#Cc1c(F)ccc2cc(O)cc(-c3nc(OC)c4c(N5CC6CCC(C5)N6C(=O)NC(C)(C#N)CC)nc(OCC5(CN6CCC(F)CC6)CC5)nc4c3F)c12 (stereo not shown) [Example 64] | < 100
C#Cc1c(F)ccc2cc(O)cc(-c3ncc4c(N5CC6CCC(C5)N6C(=O)C(O)O)nc(OCC5(CN6CCC(F)CC6)CC5)nc4c3F)c12 [Example 15] | > 1000
C#CCCC(=O)N1C2CCC1CN(c1nc(OCC3(CN4CCC(F)CC4)CC3)nc3c(F)c(-c4cc(O)cc5ccc(F)c(C#C)c45)nc(OC)c13)C2 [Example 61] | 100 to 1000
C#Cc1c(F)ccc2cc(O)cc(-c3nc(OC)c4c(N5CC6CCC(C5)N6C(=O)NC(C)(C)C#N)nc(OCC5(CN6CCC(F)CC6)CC5)nc4c3F)c12 [Example 65] | < 100
[2H]C([2H])([2H])Oc1nc(-c2cc(O)cc3ccc(F)c(C#C)c23)c(F)c2nc(OCC3(CN4CC5CC5C4)CC3)nc(N3CC4CCC(C3)N4C(=O)C(C)C#N)c12 (stereo not shown) [Example 118] | 100 to 1000
C#Cc1c(F)ccc2cc(O)cc(-c3nc(OC)c4c(N5CC6CCC(C5)N6C(=O)NCCF)nc(OCC5(CN6CCC(F)CC6)CC5)nc4c3F)c12 [Example 62] | 100 to 1000
C#Cc1c(F)ccc2cc(O)cc(-c3nc(OC)c4c(N5CC6CCC(C5)N6C(=O)C[C@@H](C)C#N)nc(OCC5(CN6CC7CC7C6)CC5)nc4c3F)c12 (stereo partly shown) [Example 177] | < 100
C#Cc1c(F)ccc2cc(O)cc(-c3nc(OC)c4c(N5CC6CCC(C5)N6C(=O)C5CC(F)(F)CO5)nc(OCC5(CN6CC7CC7C6)CC5)nc4c3F)c12 (stereo not shown) [Example 154] | 100 to 1000
C#Cc1c(F)ccc2cc(O)cc(-c3nc(OC)c4c(N5CC6CCC(C5)N6C(=O)NC(C#N)C5CC5)nc(OCC5(CN6CC7CC7C6)CC5)nc4c3F)c12 (stereo not shown) [Example 192] | 100 to 1000
C#Cc1c(F)ccc2cc(O)cc(-c3nc(OC)c4c(N5CC6CCC(C5)N6C(=O)N[C@@H]5CCC[C@@H]5C#N)nc(OCC5(CN6CC7CC7C6)CC5)nc4c3F)c12 (stereo partly shown) [Example 195] | 100 to 1000
C#Cc1c(F)ccc2cc(N)cc(-c3nc(OC)c4c(N5CC6CCC(C5)N6C(=S)NC(C)C#N)nc(OCC5(CN6CC7CC7C6)CC5)nc4c3F)c12 (stereo not shown) [Example 166] | > 1000
C#Cc1c(F)ccc2cc(O)cc(-c3nc(OC)c4c(N5CC6CCC(C5)N6C(=O)NC5CCC5)nc(OCC5(CN6CCC(F)CC6)CC5)nc4c3F)c12 [Example 89] | < 100
C#Cc1c(F)ccc2cc(O)cc(-c3nc(OC)c4c(N5CC6CCC(C5)N6C(=O)NC5(C#N)CCC5)nc(OCC5(CN6CC7CC7C6)CC5)nc4c3F)c12 (stereo not shown) [Example 197] | < 100
C#Cc1c(F)ccc2cc(O)cc(-c3nc(OC)c4c(N5CC6CCC(C5)N6C(=O)OCC)nc(OCC5(CN6CC7CC7C6)CC5)nc4c3F)c12 (stereo not shown) [Example 164] | 100 to 1000
C#Cc1c(F)ccc2cc(O)cc(-c3nc(OC)c4c(N5CC6CCC(C5)N6C(=O)CCN(C)OC)nc(OCC5(CN6CC7CC7C6)CC5)nc4c3F)c12 (stereo not shown) [Example 168] | 100 to 1000
C#Cc1c(F)ccc2cc(O)cc(-c3nc(OC)c4c(N5CC6CCC(C5)N6C(=O)N[C@@H]5C[C@H]5F)nc(OCC5(CN6CCC(F)CC6)CC5)nc4c3F)c12 [Example 73] | 100 to 1000
C#Cc1c(F)ccc2cc(O)cc(-c3nc(OC)c4c(N5CC6CCC(C5)N6C(=O)C[C@H](O)C(F)(F)F)nc(OCC5(CN6CC7CC7C6)CC5)nc4c3F)c12 (stereo partly shown) [Example 180] | 100 to 1000

SMILES | EC50 [nM]
C#Cc1c(F)ccc2cc(O)cc(-c3nc(OC)c4c(N5CC6CCC(C5)N6C(=O)[C@H]5CC5(F)F)nc(OCC5(CN6CCC(F)CC6)CC5)nc4c3F)c12 [Example 69] | < 100
C#Cc1c(F)ccc2cc(O)cc(-c3nc(OC)c4c(N5CC6CCC(C5)N6C(=O)COC)nc(OCC5(CN6CC7CC7C6)CC5)nc4c3F)c12 (stereo not shown) [Example 106] | 100 to 1000
C#Cc1c(F)ccc2cc(O)cc(-c3nc(C#C)c4c(N5CC6CCC(C5)N6C(=O)NC5CC5)nc(OCC5(CN6CCC(F)CC6)CC5)nc4c3F)c12 [Example 95] | 100 to 1000
C#Cc1c(F)ccc2cc(O)cc(-c3nc(OC)c4c(N5CC6CCC(C5)N6C(=O)CC[N+](=O)[O-])nc(OCC5(CN6CC7CC7C6)CC5)nc4c3F)c12 (stereo not shown) [Example 128] | 100 to 1000
C#Cc1c(F)ccc2cc(O)cc(-c3nc(OC)c4c(N5CC6CCC(C5)N6C(=O)N[C@H]5C[C@H]5F)nc(OCC5(CN6CCC(F)CC6)CC5)nc4c3F)c12 [Example 68] | > 1000
C#Cc1c(F)ccc2cc(O)cc(-c3nc(OC)c4c(N5CC6CCC(C5)N6C(=O)NC(C)C#N)nc(OCC5(CN6CCC(C#N)CC6)CC5)nc4c3F)c12 (stereo not shown) [Example 134] | < 100
C#Cc1c(F)ccc2cc(O)cc(-c3nc(OC)c4c(N5CC6CCC(C5)N6C(=O)C5(C#N)CC5)nc(OCC5(CN6CC7CC7C6)CC5)nc4c3F)c12 (stereo not shown) [Example 115] | 100 to 1000
C#Cc1c(F)ccc2cc(O)cc(-c3nc(OC)c4c(N5CC6CCC(C5)N6C(=O)CCNC)nc(OCC5(CN6CC7CC7C6)CC5)nc4c3F)c12 (stereo not shown) [Example 157] | > 1000
C#Cc1c(F)ccc2cc(OC(=O)C(C)C)cc(-c3nc(OC)c4c(N5CC6CCC(C5)N6C(=O)C(C#N)CC#N)nc(OCC5(CN6CC7CC7C6)CC5)nc4c3F)c12 (stereo not shown) [Example 179] | 100 to 1000
C#Cc1c(F)ccc2cc(O)cc(-c3nc(OC)c4c(N5CC6CCC(C5)N6C(=O)Nc5cc(F)cc(F)c5)nc(OCC5(CN6CCC(F)CC6)CC5)nc4c3F)c12 [Example 90] | 100 to 1000
C#Cc1c(F)ccc2cc(O)cc(-c3nc(OC)c4c(N5CC6CCC(C5)N6C(=O)C5(C)CC5)nc(OCC5(CN6CC7CC7C6)CC5)nc4c3F)c12 (stereo not shown) [Example 114] | > 1000
C#Cc1c(F)ccc2cc(O)cc(-c3nc(OC)c4c(N5CC6CCC(C5)N6C(=O)NC5(C#N)COC5)nc(OCC5(CN6CC7CC7C6)CC5)nc4c3F)c12 (stereo not shown) [Example 196] | 100 to 1000
C#Cc1c(F)ccc2cc(O)cc(-c3nc(OC)c4c(N5CC6CCC(C5)N6C(C)C)nc(OCC5(CN6CC7CC7C6)CC5)nc4c3F)c12 (stereo not shown) [Example 121] | > 1000
C#Cc1c(F)ccc2cc(O)cc(-c3nc(OC)c4c(N5CC6CCC(C5)N6C(=O)NC5CC5(F)F)nc(OCC5(CN6CCC(F)CC6)CC5)nc4c3F)c12 (stereo not shown) [Example 86] | 100 to 1000
C#Cc1c(F)ccc2cc(O)cc(-c3nc(OC)c4c(N5CC6CCC(C5)N6C(=O)C(C)C#N)nc(OCC5(CN6CC7CC7C6)CC5)nc4c3F)c12 (stereo not shown) [Example 123] | 100 to 1000
C#Cc1c(F)ccc2cc(O)cc(-c3nc(OC)c4c(N5CC6CCC(C5)N6C(=O)C(C)CC#N)nc(OCC5(CN6CC7CC7C6)CC5)nc4c3F)c12 (stereo not shown) [Example 141] | 100 to 1000
C#Cc1c(F)ccc2cc(O)cc(-c3nc(OC)c4c(N5CC6CCC(C5)N6C(=O)NC5CCC(F)(F)C5)nc(OCC5(CN6CCC(F)CC6)CC5)nc4c3F)c12 (stereo not shown) [Example 79] | 100 to 1000
C#Cc1c(F)ccc2cc(O)cc(-c3nc(OC)c4c(N5CC6CCC(C5)N6C(=O)NC5CN(C)C5)nc(OCC5(CN6CC7CC7C6)CC5)nc4c3F)c12 (stereo not shown) [Example 158] | > 1000

Same assay, conditions: NCIH727 lung carcinoid, heterozygous G12V, 72 hr

SMILES | EC50 [nM]
C#Cc1c(F)ccc2cc(O)cc(-c3nc(OC)c4c(N5CC6CCC(C5)N6C(=O)C5C[C@H]5C#N)nc(OCC5(CN6CCC(F)CC6)CC5)nc4c3F)c12 (stereo partly shown) [Example 83] | 100 to 1000

The molecules below were run against T1, KRAS(G12V)/SOS1 (Homo sapiens, UniProt P01116, G12V) (assay: KRAS(G12V)/SOS1 homogeneous time-resolved fluorescence (HTRF) assay). Conditions: absence of GTP; 4° C., 3 hours; read-out: HTRF of KRASG12V-SOS1.
T1 construct: purchased Cisbio 63ADK000CB18PEH
Type: binding
Procedure: Binding of test compounds to KRAS(G12V) target protein, which in turn blocks KRAS(G12V) interaction with the SOS1 protein, was measured in the absences of GTP by homogeneous time-resolved fluorescence using the KRAS-G12V/SOS1 Binding Assay Kit (Cisbio, 63ADK000CB18PEH), following the manufacturer's instructions, except as noted. 3-fold serial dilutions of each test compound were prepared ranging from 20 µM to 1.02 nM. The test compound was mixed and incubated with reaction components, incubated in a sealed plate at 4° C. for 3 hours and fluorescence was measured using a PerkinElmer Envision plate reader. The KRAS(G12V)-SOS1 IC50 values (the concentration of 50% of the maximal inhibition) were calculated using GraphPad Prism 8.0 software.

T1 sequence (P01116 1-188 isoform P01116-2 G12V): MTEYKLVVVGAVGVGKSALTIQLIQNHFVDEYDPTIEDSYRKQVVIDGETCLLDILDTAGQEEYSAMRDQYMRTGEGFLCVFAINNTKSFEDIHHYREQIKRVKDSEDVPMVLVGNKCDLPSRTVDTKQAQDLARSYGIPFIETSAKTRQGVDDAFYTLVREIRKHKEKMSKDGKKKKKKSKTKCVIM

SMILES | IC50 [nM]
C#CCC(=O)N1C2CCC1CN(c1nc(OCC3(CN4CCC(F)CC4)CC3)nc3c(F)c(-c4cc(O)cc5ccc(F)c(C#C)c45)ncc13)C2 [Example 54] | < 100
C#Cc1c(F)ccc2cc(O)cc(-c3ncc4c(N5CC6CCC(C5)N6C(=O)Nc5ccn[nH]5)nc(OCC5(CN6CCC(F)CC6)CC5)nc4c3F)c12 [Example 10] | < 100
C#Cc1c(F)ccc2cc(O)cc(-c3ncc4c(N5CC6CCC(C5)N6C(=O)CC(C)C)nc(OCC5(CN6CCC(F)CC6)CC5)nc4c3F)c12 [Example 4] | 100 to 1000
C#Cc1c(F)ccc2cc(O)cc(-c3nc(OC)c4c(N5CC6CCC(C5)N6C(=O)NC(C)(C#N)CC)nc(OCC5(CN6CCC(F)CC6)CC5)nc4c3F)c12 (stereo not shown) [Example 64] | < 100
C#Cc1c(F)ccc2cc(O)cc(-c3nc(OC)c4c(N5CC6CCC(C5)N6C(=O)CC(F)(F)F)nc(OCC5(CN6CCC(F)CC6)CC5)nc4c3F)c12 [Example 20] | < 100
C#Cc1c(F)ccc2cc(O)cc(-c3ncc4c(N5CC6CCC(C5)N6C(=O)C(O)O)nc(OCC5(CN6CCC(F)CC6)CC5)nc4c3F)c12 [Example 15] | 100 to 1000
C#CCCC(=O)N1C2CCC1CN(c1nc(OCC3(CN4CCC(F)CC4)CC3)nc3c(F)c(-c4cc(O)cc5ccc(F)c(C#C)c45)nc(OC)c13)C2 [Example 61] | < 100
C#Cc1c(F)ccc2cc(O)cc(-c3nc(OC)c4c(N5CC6CCC(C5)N6C(=O)NC(C)(C)C#N)nc(OCC5(CN6CCC(F)CC6)CC5)nc4c3F)c12 [Example 65] | < 100
[2H]C([2H])([2H])Oc1nc(-c2cc(O)cc3ccc(F)c(C#C)c23)c(F)c2nc(OCC3(CN4CC5CC5C4)CC3)nc(N3CC4CCC(C3)N4C(=O)C(C)C#N)c12 (stereo not shown) [Example 118] | < 100
C#Cc1c(F)ccc2cc(O)cc(-c3ncc4c(N5CC6CCC(C5)N6S(=O)(=O)NCCN(C)C)nc(OCC5(CN6CCC(F)CC6)CC5)nc4c3F)c12 [Example 56] | < 100
C#Cc1c(F)ccc2cc(O)cc(-c3nc(OC)c4c(N5CC6CCC(C5)N6C(=O)NCCF)nc(OCC5(CN6CCC(F)CC6)CC5)nc4c3F)c12 [Example 62] | < 100
C#Cc1c(F)ccc2cc(O)cc(-c3ncc4c(N5CC6CCC(C5)N6)nc(OCC5(CN6CCC(F)CC6)CC5)nc4c3F)c12 [Example 1, 4-(4-(3,8-diazabicyclo[3.2.1]octan-3-yl)-8-fluoro-2-((1-((4-fluoropiperidin-1-yl)methyl)cyclopropyl)methoxy)pyrido[4,3-d]pyrimidin-7-yl)-5-ethynyl-6-fluoronaphthalen-2-ol] | 100 to 1000
C#Cc1c(F)ccc2cc(O)cc(-c3ncc4c(N5CC6CCC(C5)N6C(=O)NCC(C)(C)O)nc(OCC5(CN6CCC(F)CC6)CC5)nc4c3F)c12 [Example 53] | < 100
C#Cc1c(F)ccc2cc(O)cc(-c3nc(OC)c4c(N5CC6CCC(C5)N6C(=O)NC5CCCC5)nc(OCC5(CN6CCC(F)CC6)CC5)nc4c3F)c12 [Example 55] | < 100
